The values that follow come from PubChem BioAssay (NCI).

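Where inhibition never reached the appropriate level, the endpoint shown equals the highest concentration tested. Otherwise, values were interpolated linearly from a five-concentration, 48-hour dose response in 96-well plates. The concentration for full growth arrest is given as TGI.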 Where a SMILES comes first, the peptide text is derived from it. Bounds are passed on as bounds.

Common to all, as to assay: NCI anticancer screen, dose series, 48 h
Assay [1] has as its system IGROV1 ovarian.
The test system of assay [2] is NCI-H522 lung.
The test system of assay [3] is UO-31 renal.
The test system of assay [4] is SR leukemia.
The test system of assay [5] is A549 NSCLC.
Assay [6] concerns M14 melanoma.
For assay [7], the system named is KM12 colon.
In assay [8] the test system is SK-MEL-2 melanoma.
Assay [9] concerns SF-295 CNS.
In assay [10] the test system is NCI-H23 lung.
In assay [11] the test system is T-47D breast.
Assay [12] concerns SK-MEL-28 melanoma.
Assay [13] has as its system LOX IMVI melanoma.
In assay [14] the test system is PC-3 prostate.
In assay [15] the test system is EKVX NSCLC.
Assay [16] deals with MDA-N.
In assay [17] the test system is HCT-116 colon.
For assay [18], the system named is SF-539 CNS.

For the molecule `CC(C)=CCC[C@](C)(O[C@@H]1O[C@H](CO)[C@@H](O)[C@H](O)[C@H]1O)[C@H]1CC[C@]2(C)[C@@H]1[C@H](O)C[C@@H]1[C@@]3(C)CC[C@H](O)C(C)(C)[C@@H]3[C@@H](O[C@@H]3O[C@H](CO)[C@@H](O)[C@H](O)[C@H]3O)C[C@]12C`, the TGI in assay [1], in assay [2], in [3], in assay [4], in assay [5] and in [6] was greater than 100 µM in each case. Also, the TGI in assay [7], in assay [8], in [9], in assay [10], in assay [11] and in [12] was greater than 100 µM in each case. Moreover, the TGI in [13], in assay [14], in assay [15], in assay [16], in [17] and in assay [18] was greater than 100 µM each time.

As to `COc1ccc(CC2c3cc(OC)c(OC)c(OC)c3CC[N+]2(C)C)cc1Oc1ccc(CC2c3cc4c(c(OC)c3CCN2C)OCO4)cc1` (stereo not drawn), the TGI in [1], in assay [2], in [3], in assay [4], in [5] and in assay [6] was greater than 100 µM each time. Besides, the TGI in assay [7], in assay [8], in assay [9], in [10], in [11] and in assay [12] was greater than 100 µM in each case. The TGI in [13], in [14], in assay [15], in assay [16], in assay [17] and in assay [18] was greater than 100 µM throughout.

Turning to `C/C=C/C(C#N)(Cc1ccccc1)OP1(=O)OC(c2ccccc2)C(C)N1C` (stereo not drawn), the TGI in [1], in assay [2], in assay [3], in assay [4], in assay [5] and in assay [6] was greater than 100 µM throughout. The TGI in assay [7], in assay [8], in [9], in [10], in assay [11] and in [12] was greater than 100 µM throughout. The TGI in assay [13], in assay [14], in assay [15], in assay [16], in assay [17] and in assay [18] was greater than 100 µM in each case.

As to `Cc1c2cccc-2ccc2c1[nH]c1ccc(Br)cc12`, the TGI in [1] was 15 µM; in [2], 6.29 µM; in [3], 18.6 µM; in assay [4], greater than 100 µM; in assay [5], 17.5 µM; in assay [6], 20.9 µM. Further, the TGI in [7] is 7.08 µM; in assay [8], 17.9 µM; in assay [9] it was 15.7 µM; in assay [10], 22.4 µM; in [11] it was 4.01 µM; in assay [12], 24 µM. Besides, the TGI in [13] turned out to be 15 µM; in assay [14], 14.2 µM; in assay [15] it was 6.11 µM; in [16] it was 18.8 µM; in assay [17], 17.2 µM; in [18], 19.1 µM.

Take `CC(=O)NC(CS)C(=O)NC(CO)C(=O)NC(CO)C(=O)NC(Cc1c[nH]c2ccccc12)C(=O)N1CCCC1C(=O)NC(CO)C(=O)NC(Cc1c[nH]c2ccccc12)C(=O)NC(Cc1c[nH]cn1)C(=O)NC(CO)C(=O)NC(Cc1c[nH]c2ccccc12)C(=O)NCC(=O)NCC(=O)NC(CC(=O)O)C(=O)NC(CCC(N)=O)C(=O)NC(CCCCN)C(=O)NC(Cc1ccccc1)C(=O)NC(CCCNC(=N)N)C(=O)NC(CCCCN)C(N)=O` (stereo not drawn) (Ac-CSSWPSWHSWGGDQKFRK-NH2; configuration not given here): the TGI in [1], in assay [2], in assay [3], in assay [4], in assay [5] and in [6] was greater than 25 µM throughout. Besides, the TGI in assay [7], in assay [8], in assay [9], in assay [10], in assay [11] and in assay [12] was greater than 25 µM throughout. Moreover, the TGI in assay [13], in assay [14], in [15], in assay [16], in [17] and in assay [18] was greater than 25 µM each time.

As for `CN1CCCC1=NC#N`, the TGI in [1], in [2], in assay [3], in [4], in [5] and in assay [6] was greater than 100 µM in each case. The TGI in [7], in [8], in assay [9], in [10], in assay [11] and in assay [12] was greater than 100 µM each time. The TGI in assay [13], in [14], in [15], in assay [16], in [17] and in [18] was greater than 100 µM in each case.

As for `CCN(CC)CCn1c2cc3c(cc2c(=O)c2cccnc21)OCO3`, the TGI in assay [1], in assay [2], in assay [4], in assay [5], in assay [6] and in assay [7] was greater than 10 µM each time. The TGI in assay [8], in assay [9], in assay [10], in [11], in [12] and in assay [13] was greater than 10 µM throughout. Besides, the TGI in assay [14], in assay [15], in assay [16], in assay [17] and in assay [18] was greater than 10 µM throughout.

As for `S=C(N/N=C(/c1ccccc1)c1ccccn1)Nc1ccc(Cl)cc1`, the TGI in assay [1] was determined as 12.9 µM; in assay [2], 11.5 µM; in [3], 9.37 µM; in [4] it was 6.75 µM; in [5], 14 µM; in assay [6], 2.81 µM. In addition, the TGI in assay [7] was determined as 13.7 µM; in [8] it was 4.91 µM; in assay [9], 11.3 µM; in [10] it was 22.6 µM; in assay [11], 2.89 µM; in [12], 11.8 µM. Also, the TGI came out at 7.49 µM in assay [13]; 10.3 µM in assay [14]; 15.5 µM in assay [15]; 9.57 µM in assay [16]; 4.47 µM in assay [17]; 8.55 µM in [18].

In the case of `CC[C@H](C)C1=C(O)[N@+]2([O-])Oc3ccc(-c4c(O)c(O)c(-c5ccc(OC(C)=O)cc5)c(OC(C)=O)c4OC(C)=O)cc3O[C@]2([C@@H](C)CC)C(=O)N1O`, the TGI in [1] was 18.6 µM; in [2] it was 18 µM; in assay [3], greater than 50 µM; in [4] it was 33 µM; in assay [5], greater than 50 µM; in assay [6], greater than 50 µM. Also, the TGI in [7], in assay [8], in [9], in [10], in assay [11] and in [12] was greater than 50 µM each time. For the same molecule, the TGI in assay [13] is greater than 50 µM; in assay [14], greater than 50 µM; in [15], greater than 50 µM; in [16] it was greater than 50 µM; in assay [17], 17.8 µM; in assay [18], greater than 50 µM.

In the case of `O=C1c2cscc2C(=O)C1(O)O`, the TGI in assay [1] was greater than 100 µM; in [2], 40.3 µM; in assay [3] it was 49.1 µM; in [4], 49.3 µM; in [5], greater than 100 µM; in assay [6] it was 45.5 µM. The TGI was greater than 100 µM in assay [7]; greater than 100 µM in assay [8]; greater than 100 µM in [9]; 45.9 µM in [10]; 37.5 µM in assay [11]; greater than 100 µM in [12]. The TGI in [13] was greater than 100 µM; in assay [14] it was greater than 100 µM; in [15], greater than 100 µM; in assay [16], greater than 100 µM; in assay [17], 46.3 µM; in [18] it was greater than 100 µM.

Take `COc1ccc2oc(=O)c(CC=C(C)C)c(O)c2c1C`: the TGI in assay [1], in [2], in [3], in assay [4], in assay [5] and in assay [6] was greater than 100 µM throughout. The TGI in [7], in assay [8], in [9], in [10], in assay [11] and in assay [12] was greater than 100 µM in each case. Further, the TGI in assay [13], in assay [14], in assay [15], in [16], in assay [17] and in assay [18] was greater than 100 µM throughout.

For `COc1ccccc1N1C(=O)CS(=O)(=O)C1c1cccc(Oc2ccccc2)c1` (stereo not drawn), the TGI in assay [2] was 29.3 µM; in assay [3], 35.1 µM; in assay [4], 28.2 µM; in assay [5] it was 40.5 µM; in assay [6], 33.3 µM; in assay [7], 61.7 µM. In addition, the TGI in [8] was found to be 27.1 µM; in assay [9], 38.2 µM; in assay [10], 37.3 µM; in assay [11], 48.3 µM; in assay [12], 36.7 µM; in assay [13], 36.1 µM. In addition, the TGI amounted to 27.2 µM in assay [14]; 42.6 µM in [15]; 16.5 µM in [16]; 27.3 µM in [17]; 32.6 µM in assay [18].

With `O=C1/C(=C/c2ccccc2)N=C(c2ccccc2)N1C1Nc2cc3c(cc2S1)NC(N1C(=O)/C(=C/c2ccccc2)N=C1c1ccccc1)S3` (stereo not drawn), the TGI is greater than 100 µM in assay [1]; 0.0623 µM in assay [2]; greater than 100 µM in [3]; greater than 100 µM in [4]; greater than 100 µM in assay [6]; 55.6 µM in assay [7]. Besides, the TGI in assay [8] was 77.5 µM; in [9] it was greater than 100 µM; in [10], 39.3 µM; in assay [11] it was greater than 100 µM; in assay [12], greater than 100 µM; in assay [13] it was greater than 100 µM. The TGI in assay [14], in assay [15], in [16], in assay [17] and in assay [18] was greater than 100 µM in each case.

Turning to `Nc1ccc2cc3[nH]c4cc(N)ccc4c3nc2c1`, the TGI in assay [2] is 64.6 µM; in assay [3] it was 0.659 µM; in assay [4], 0.66 µM; in assay [5], 3.38 µM; in [6], 1.36 µM; in [7], 1.7 µM. Also, the TGI in assay [8] was 1.47 µM; in [9], 1.37 µM; in [10], 0.893 µM; in [11], 4.33 µM; in [12], 0.317 µM; in [13] it was 0.911 µM. Besides, the TGI in assay [14] is 1.49 µM; in [15] it was 1.93 µM; in assay [16] it was 1.13 µM; in assay [17], 0.456 µM; in [18], 1.4 µM.
